Article PMC11272598, “RG7774 (Vicasinabin), an orally bioavailable cannabinoid receptor 2 (CB2R) agonist, decreases retinal vascular permeability, leukocyte adhesion, and ocular inflammation in animal models” (Frontiers in Pharmacology, 2024)

Experiments:
[1] = biological target: T1, Human 5-LOX (Homo sapiens, UniProt P09917); assay: Human 5-LOX assay; assay type: biochemical; conditions: RG7774 10 µM; read-out: Mean ± SEM % inhibition of control, Human 5-LOX
T1 construct: purchased Cayman Chemical Company #60402
Procedure: The inhibitory effects of different concentrations of RG7774 (0.1-500 µM) on the activities of human recombinant 5-LOX (Cayman Chemical Company #60402), 15-LOX (Cayman Chemical Company #10011263), and human platelet-derived 12-LOX were determined using the Biovision Lipoxygenase Activity Assay Kit (#BVN-K978-100). This kit converts the LOX substrate to an intermediate that reacted with the probe, generating a fluorescent product. The effect of RG7774 (preincubated for 15 min) at 10 µM on LOXs (5-LOX: 0.5 or 1.2 µg; 12-LOX: 20 µg; 15-LOX: 0.23 or 0.3 µg) was ascertained by adding the compounds directly to the incubation medium and the fluorescent signal, recorded at excitation/emission 500/536 nm at 30 sec intervals for 30-40 min, was directly proportional to LOX activity. […] The percentage of human 5-, 12-, and 15-LOX activity (control) was estimated from the amount of oxidized probe in the reaction using a standard curve.

[2] = biological target: T2, Human FAAH (Homo sapiens, UniProt O00519); assay: Human FAAH assay; assay type: biochemical; conditions: RG7774 10 µM; read-out: Mean ± SEM % inhibition of control, Human FAAH
T2 construct: purchased Cayman Chemical Company
Procedure: Mouse brain was homogenized in 50 mM Tris-HCl (pH 7.4) using a glass potter, centrifuged at 1000 g for 10 min, and the pellet was discarded. The supernatant (50 µg) was incubated with [^14C]-AEA (10 µM) (ARC, MO, USA) at 37°C for 15 min (Tris-HCl, pH 9.0) and reactions were stopped with a 2:1 (v/v) mixture of chloroform/methanol. [^14C]-ethanolamine release in the aqueous phase was measured as previously reported. Mouse supernatants (50 µg) were preincubated with RG7774 (10 µM) for 15 min and added directly to the incubation medium. Purified human FAAH (1.7 µg; Cayman Chemical Company, MI, USA) was incubated with [^14C]-AEA (10 µM) (ARC, MO, USA) at 37°C for 15 min (pH 9.0), as previously described. […] for 15 min with 8 different concentrations of RG7774 (0.1-500 µM) and added directly to the incubation medium (250 µL). Control experiments was carried out in the presence of the FAAH inhibitor, URB-597 (100 nM).

[3] = biological target: T3, Mouse MAGL (Mus musculus, UniProt O35678); assay: Mouse MAGL assay (brain); assay type: biochemical; conditions: RG7774 10 µM; read-out: Mean ± SEM % inhibition of control, Mouse MAGL
T3 construct: Mouse brain or human U937 cell extracts (ATCC, Manassas, VI, USA); from tissue; host or cells: mouse brain, 100,000 g supernatant
Procedure: The final supernatant was incubated with [^3H]-2-OG (10 µM) (ARC, MO, USA) at 37°C for 30 min as previously described, and reactions were stopped with a 2:1 (v/v) mixture of chloroform/methanol. [^3H]-glycerol release in the aqueous phase was measured by scintillation counting. […] Human supernatant (100 µg) was preincubated for 15 min at RT with 8 different concentrations of RG7774 (0.1-500 µM) in the incubation medium.

[4] = biological target: GAL2 (Homo sapiens, UniProt O43603); assay type: binding
Excerpt: Supplement Table1.docx, table 3: Supplementary Table S3. RG7774 binding to non-CB1R/CB2R receptors, ion channels, transporters, and enzymes (CEREP, Celle l’Evescault, France; http://www.cerep.fr). | column: % inhibition of control SB (n = 2)

[5] = biological target: Mouse CB1R (Mus musculus, UniProt P47746); assay: Competitive binding assay in mouse brain membranes, [^3H]-CP55940; parameters: mouse brain membranes expressing endogenous CB1R; from tissue; host or cells: mouse brain membranes; conditions: RG7774 10 µM; read-out: Mean ± SEM % inhibition of control, Mouse CB1R (competitive binding assay)
Procedure: Mouse brain was resuspended in 2 mM Tris–EDTA, 320 mM sucrose, 5 mM MgCl2 (pH 7.4), homogenized using a glass potter, and centrifuged 3 times, each at 1000 g for 10 min.

T2 sequence (O00519 whole entry): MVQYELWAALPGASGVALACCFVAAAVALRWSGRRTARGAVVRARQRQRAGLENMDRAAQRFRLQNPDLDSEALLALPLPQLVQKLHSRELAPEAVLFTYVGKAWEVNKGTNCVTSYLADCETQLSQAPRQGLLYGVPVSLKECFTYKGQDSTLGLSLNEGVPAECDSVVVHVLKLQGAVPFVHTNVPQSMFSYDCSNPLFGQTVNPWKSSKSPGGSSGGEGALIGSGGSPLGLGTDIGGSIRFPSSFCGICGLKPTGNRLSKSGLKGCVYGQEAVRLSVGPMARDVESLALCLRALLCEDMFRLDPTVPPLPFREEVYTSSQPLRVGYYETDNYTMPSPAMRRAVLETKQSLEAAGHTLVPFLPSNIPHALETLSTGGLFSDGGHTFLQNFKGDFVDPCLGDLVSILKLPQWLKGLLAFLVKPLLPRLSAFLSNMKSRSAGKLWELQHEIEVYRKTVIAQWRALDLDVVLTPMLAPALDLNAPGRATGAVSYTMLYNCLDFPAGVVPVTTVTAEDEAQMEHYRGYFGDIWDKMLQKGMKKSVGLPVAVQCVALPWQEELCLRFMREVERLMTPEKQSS
Sequence of GAL2 (O43603 whole entry): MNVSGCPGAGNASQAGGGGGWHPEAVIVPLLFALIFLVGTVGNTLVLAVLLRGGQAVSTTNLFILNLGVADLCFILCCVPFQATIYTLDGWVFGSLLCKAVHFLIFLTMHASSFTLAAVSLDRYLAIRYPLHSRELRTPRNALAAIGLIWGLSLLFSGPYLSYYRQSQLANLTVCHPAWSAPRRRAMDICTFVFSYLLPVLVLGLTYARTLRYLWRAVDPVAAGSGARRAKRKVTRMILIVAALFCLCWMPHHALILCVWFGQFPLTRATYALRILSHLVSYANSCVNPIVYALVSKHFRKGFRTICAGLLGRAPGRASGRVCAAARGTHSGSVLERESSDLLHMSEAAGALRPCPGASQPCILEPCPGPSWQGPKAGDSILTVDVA
Sequence of Mouse CB1R (P47746 whole entry): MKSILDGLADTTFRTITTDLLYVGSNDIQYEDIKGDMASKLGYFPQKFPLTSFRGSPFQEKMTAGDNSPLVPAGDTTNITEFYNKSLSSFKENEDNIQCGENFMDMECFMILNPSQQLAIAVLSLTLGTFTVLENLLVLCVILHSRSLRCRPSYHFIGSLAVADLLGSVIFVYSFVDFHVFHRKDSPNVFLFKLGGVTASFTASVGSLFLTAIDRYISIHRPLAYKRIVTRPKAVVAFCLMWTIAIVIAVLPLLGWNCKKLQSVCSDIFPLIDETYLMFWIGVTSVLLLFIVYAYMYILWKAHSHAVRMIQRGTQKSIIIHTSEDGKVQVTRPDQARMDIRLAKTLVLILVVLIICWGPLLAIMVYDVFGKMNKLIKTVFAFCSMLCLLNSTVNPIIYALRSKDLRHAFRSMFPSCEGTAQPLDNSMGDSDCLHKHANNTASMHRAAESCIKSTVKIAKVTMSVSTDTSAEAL
T3 sequence (O35678 whole entry): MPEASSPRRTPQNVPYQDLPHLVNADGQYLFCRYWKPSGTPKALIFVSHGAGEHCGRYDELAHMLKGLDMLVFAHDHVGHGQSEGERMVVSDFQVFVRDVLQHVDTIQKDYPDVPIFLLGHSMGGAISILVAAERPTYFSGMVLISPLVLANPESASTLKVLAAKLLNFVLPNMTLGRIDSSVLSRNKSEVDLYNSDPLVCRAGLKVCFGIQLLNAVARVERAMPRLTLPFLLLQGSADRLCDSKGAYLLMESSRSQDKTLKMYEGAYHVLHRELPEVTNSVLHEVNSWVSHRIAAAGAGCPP
T1 sequence (P09917 whole entry): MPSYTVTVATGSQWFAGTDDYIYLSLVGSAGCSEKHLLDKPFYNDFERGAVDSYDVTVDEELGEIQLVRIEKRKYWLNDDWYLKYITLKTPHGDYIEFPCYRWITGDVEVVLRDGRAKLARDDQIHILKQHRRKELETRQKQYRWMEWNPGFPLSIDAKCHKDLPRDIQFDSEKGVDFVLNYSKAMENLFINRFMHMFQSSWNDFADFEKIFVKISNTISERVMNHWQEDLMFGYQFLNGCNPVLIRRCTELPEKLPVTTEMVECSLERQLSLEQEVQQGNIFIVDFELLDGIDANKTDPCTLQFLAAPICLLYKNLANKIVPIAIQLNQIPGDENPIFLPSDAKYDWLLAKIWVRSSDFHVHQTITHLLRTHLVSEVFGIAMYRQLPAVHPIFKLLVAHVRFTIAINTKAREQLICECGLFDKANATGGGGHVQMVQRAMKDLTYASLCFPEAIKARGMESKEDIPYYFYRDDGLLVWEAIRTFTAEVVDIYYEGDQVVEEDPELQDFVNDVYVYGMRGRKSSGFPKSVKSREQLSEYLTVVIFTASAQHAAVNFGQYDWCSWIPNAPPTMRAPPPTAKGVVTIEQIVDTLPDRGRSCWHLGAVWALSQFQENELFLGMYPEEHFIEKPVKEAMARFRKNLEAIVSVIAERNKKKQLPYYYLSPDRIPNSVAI

Structure (SMILES): Cn1nnnc1Cn1nnc2c(N3CC[C@H](O)C3)nc(C(C)(C)C)nc21 [RG7774, (S)-1-(5-tert-butyl-3-[(1-methyl-1H-tetrazol-5-yl)methyl]-3H-[1,2,3]triazolo[4,5-d]pyrimidin-7-yl)pyrrolidin-3-ol]
- inhibition at 10 µM [1]: -20.5%
- inhibition at 10 µM [2]: -5.2%
- inhibition at 10 µM [3]: 2.7 ± 11.7%
- % inhibition of control SB (n = 2) [4]: –4.0%
- inhibition at 10 µM [5]: 3.8%
